This assay concerns the target T1, human A3AR (Homo sapiens, UniProt P0DMS8).
T1 construct: expressed in transfected cells
T1 sequence (P0DMS8 1-318): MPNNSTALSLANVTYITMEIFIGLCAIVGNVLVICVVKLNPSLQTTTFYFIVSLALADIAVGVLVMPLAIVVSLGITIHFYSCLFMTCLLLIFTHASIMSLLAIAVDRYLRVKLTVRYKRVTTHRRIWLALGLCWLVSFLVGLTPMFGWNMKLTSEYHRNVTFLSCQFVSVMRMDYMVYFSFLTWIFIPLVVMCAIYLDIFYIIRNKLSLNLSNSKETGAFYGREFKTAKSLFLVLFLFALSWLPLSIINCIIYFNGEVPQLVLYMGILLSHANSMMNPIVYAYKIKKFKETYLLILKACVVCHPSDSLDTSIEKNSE
Nature of the assay: LOPAC library primary screen: single concentration (10 μM) inhibition of 25 nM CA200645 binding, PHERAstar FS.

Setting [1] is: % of control wells (1% DMSO and 25 nM CA200645), compounds at 10 µM, whole live cells expressing the A3AR, mean ± SD, three experiments in duplicate.

Where a name gives a salt, the structure may show the parent alone. Read-outs that look alike come from different tables or passages of the source.

Take `NCCSSCCN` [Cystamine dihydrochloride]: where the note is “% of control wells (1% DMSO and 25 nM CA200645), compounds at 10 µM, whole live cells expressing A3AR, mean ± SD, three experiments in duplicate”, the “% 25 nM CA200645 binding” value is recorded as 96.6 ± 12.8%.
Take `O=C1CN(/N=C/c2ccc(-c3ccc([N+](=O)[O-])cc3)o2)C(O)=N1` [Dantrolene sodium]: the “% 25 nM CA200645 binding” value came out at 94.8 ± 9.5%.
On the same count and under the same terms, under `N[C@@H]1CONC1=O` (racemic) [DL-Cycloserine] stands 97.4 ± 8.2%; under `O=C1c2c(O)cc(O)cc2O[C@H](c2ccc(O)c(O)c2)[C@H]1O` (racemic) [(±)-Taxifolin], 111.1 ± 7.5%.
With `N[C@@H](Cc1c[nH]c2ccccc12)C(=O)O` [L-Tryptophan], the “% 25 nM CA200645 binding” value under setting [1] was determined as 100.0 ± 3.7%.
Take `C[n+]1cc2c3c(ccc2c2ccc4cc5c(cc4c21)OCO5)OCO3` [Sanguinarine chloride]: the “% 25 nM CA200645 binding” value is on record as 38.9 ± 20.6%.
Take `CCCCCCC(C(C)O)n1cnc2c(N)ncnc21.Cl` (stereo not shown): the “% 25 nM CA200645 binding” value is on record as 80.7 ± 17.0%.
The same measure, in the same setting: the same measure for `COc1cc(OC)c(C=C2C(O)=Nc3ccccc32)c(OC)c1` [IC 261]: 88.8 ± 5.2%; for `O=C(O)CCc1nc(-c2ccccc2)c(-c2ccccc2)o1` [Oxaprozin]: 97.6 ± 6.3%.
Consider `CCN1CCc2nc(N)oc2CC1.Cl.Cl` [B-HT 933 dihydrochloride], for which the “% 25 nM CA200645 binding” value stood at 90.5 ± 9.0%.
On the same count and under the same terms, under `CN(C)CC[C@@H](c1ccc(Br)cc1)c1ccccn1` [(+)-Brompheniramine maleate] stands 97.2 ± 7.4%.
Same read-out and setting: under `NCCCS(=O)(=O)O.[Na]` [3-Amino-1-propanesulfonic acid sodium] stands 96.5 ± 4.6%; under `CCCN(CCC)CCc1cccc2c1CC(=O)N2` [Ropinirole hydrochloride], 107.5 ± 15.4%.
Same read-out and setting: under `CCCCCCCCCCCCCCCC(=O)OC(CC(=O)O)C[N+](C)(C)C.[Cl-]` (racemic) [Palmitoyl-DL-Carnitine chloride] stands 82.9 ± 21.8%.
As for `CO/N=C(\C(=O)N[C@@H]1C(=O)N2C(C(=O)O)=C(COC(C)=O)CS[C@H]12)c1csc(N)n1` [Cefotaxime sodium], the “% 25 nM CA200645 binding” value was determined as 94.2 ± 6.2%.
The same measure, in the same setting: the same measure for `COc1cc(OC)cc(-c2cc3cnc(N)nc3nc2NC(=O)NC(C)(C)C)c1` [PD-166866]: 34.3 ± 9.7%; for `C=CC[C@H](N)C(=O)O` [L-allylglycine]: 98.5 ± 1.7%; for `CN(C)c1cc2c(Nc3ccc4c(cnn4Cc4ccccc4)c3)ncnc2cn1` [GW2974]: 57.3 ± 11.9%.
The same measure, in the same setting: under `CC(=O)OCC1=C(C(=O)[O-])N2C(=O)[C@@H](NC(=O)CCC[C@@H](N)C(=O)[O-])[C@H]2SC1.[Zn+2]` [Cephalosporin C zinc salt] stands 86.9 ± 28.2%; under `CC(=O)NCCc1c[nH]c2ccccc12` [N-Acetyltryptamine], 99.0 ± 14.1%; under `CC(=N)NCCCC[C@H](N)C(=O)O.Cl` [L-N6-(1-Iminoethyl)lysine hydrochloride], 96.4 ± 1.7%.
Still for that read-out and setting: under `O=c1c2ccccc2[nH]c(=S)n1CCN1CCC(=C(c2ccc(F)cc2)c2ccc(F)cc2)CC1` [Diacylglycerol Kinase Inhibitor II] stands 51.5 ± 9.4%; under `COc1ccc2[nH]cc(CCN)c2c1.Cl` [O-Methylserotonin hydrochloride], 107.2 ± 4.7%; under `Cl.Cl.Oc1ccc2c3c1O[C@H]1c4[nH]c5c(c4C[C@@]4(O)[C@@H](C2)N(CC2CC2)CC[C@]314)C[C@@]1(O)[C@H]2Cc3ccc(O)c4c3[C@@]1(CCN2CC1CC1)[C@H]5O4` [nor-Binaltorphimine dihydrochloride], 96.9 ± 14.7%.
On to `O=C(N[C@@H](Cc1ccccc1)C(=O)CCl)OCc1ccccc1` [Z-L-Phe chloromethyl ketone], for which the “% 25 nM CA200645 binding” value amounted to 100.8 ± 7.1%.
Still for that read-out and setting: the same measure for `CCCNCC(O)COc1ccccc1C(=O)CCc1ccccc1` (stereo not shown) [Propafenone hydrochloride]: 111.3 ± 10.1%.
Same read-out and setting: under `CNc1cc(NS(=O)(=O)c2ccc(N)cc2)nc(NC)n1.Cl.Cl` [Ro 04-6790 dihydrochloride] stands 82.1 ± 15.5%; under `CNCCC(Oc1ccc(C(F)(F)F)cc1)c1ccccc1` (stereo not shown) [Fluoxetine hydrochloride], 102.9 ± 7.1%.
For the compound `CCCn1c(=O)[nH]c(=O)c2nc[nH]c21` [3-n-Propylxanthine], the “% 25 nM CA200645 binding” value came to 101.0 ± 10.1%.
As for `COc1ccc(CCCOC(Cn2ccnc2)c2ccc(OC)cc2)cc1` (stereo not shown) [SKF 96365], the “% 25 nM CA200645 binding” value under setting [1] stood at 100.0 ± 16.7%.
For `OC(CCN1CCCCC1)(c1ccccc1)C1CC2C=CC1C2` (stereo not shown) [Biperiden hydrochloride], the “% 25 nM CA200645 binding” value worked out at 86.9 ± 6.4%.
Still for that read-out and setting: the same measure for `CCN(CC)CCNC(=O)c1ccc(NS(C)(=O)=O)cc1.Cl.O` [Sematilide monohydrochloride monohydrate]: 97.5 ± 2.4%.
In the case of `O=C(N[C@H]1CN2CCC1CC2)c1ccc(Cl)cc1` [PNU-282987], the “% 25 nM CA200645 binding” value came out at 78.9 ± 33.0%.
The same measure, in the same setting: under `CC[C@H](NC(=O)c1c(C)c(-c2ccccc2)nc2ccccc12)c1ccccc1` [SB 222200] stands 76.8 ± 5.5%.
`NC(=Nc1ccccc1)NC(=O)c1nc(Cl)c(N)nc1N` [Phenamil methanesulfonate]: the “% 25 nM CA200645 binding” value under setting [1] is on record as 100.4 ± 3.8%.
Consider `N=C(N)N1CCc2ccccc2C1` [Debrisoquin sulfate], for which the “% 25 nM CA200645 binding” value is listed as 81.0 ± 16.3%.
As to `Oc1ccccc1O` [Pyrocatechol], the “% 25 nM CA200645 binding” value is 91.0 ± 7.4%.
Same read-out and setting: the same measure for `CC(C)NCC(O)COc1cccc2[nH]ccc12` (stereo not drawn) [S(-)-Pindolol]: 98.0 ± 8.4%; for `COc1ccc(CCN(C)CCCC(C#N)(c2cc(OC)c(OC)c(OC)c2)C(C)C)cc1OC.Cl` (racemic) [(±)-Methoxyverapamil hydrochloride]: 97.3 ± 10.6%; for `C[C@](N)(CCP(=O)(O)O)C(=O)O.Cl` [(S)-MAP4 hydrochloride]: 89.0 ± 15.4%.
Same read-out and setting: the same measure for `NNc1nncc2ccccc12` [Hydralazine hydrochloride]: 100.6 ± 8.6%; for `Nc1nc(Cl)nc2c1ncn2[C@@H]1O[C@H](COP(=O)(O)OP(=O)(O)OP(=O)(O)O)C(O)C1O` (stereo in doubt): 89.5 ± 23.0%.
Still for that read-out and setting: under MDL 26,630 trihydrochloride stands 124.5 ± 16.5%; under `C[C@@H]1O[C@H](C[N+](C)(C)C)C[C@H]1O.[Cl-]` (racemic) [(±)-Muscarine chloride], 94.8 ± 15.8%.
Take `Cn1c(=O)c2[nH]cnc2n(C)c1=O.Cn1c(=O)c2[nH]cnc2n(C)c1=O.NCCN` [Aminophylline ethylenediamine]: the “% 25 nM CA200645 binding” value amounted to 89.2 ± 8.4%.
The same measure, in the same setting: under `CN(C)CCCN1c2ccccc2Sc2ccccc21` [Promazine hydrochloride] stands 80.6 ± 8.4%; under `CC(N)c1cccc(Cl)c1Cl.Cl` (racemic), 100.4 ± 9.9%; under `COCCc1ccc(OCC(O)CNC(C)C)cc1.O=C(O)C(O)C(O)C(=O)O` (racemic) [(±)-Metoprolol (+)-tartrate], 83.3 ± 9.2%.
With `OCCN1CCN(CCCN2c3ccccc3C=Cc3ccccc32)CC1` [Opipramol dihydrochloride], the “% 25 nM CA200645 binding” value was 100.5 ± 7.4%.

The record behind these values is article PMC5733478, “A Non-imaging High Throughput Approach to Chemical Library Screening at the Unmodified Adenosine-A3 Receptor in Living Cells” (Frontiers in Pharmacology, 2017).
